# Assays:
# [1] = test system: HUVECs; test: cell proliferation (72 h) of HUVECs; type: cell-based, human; settings: HUVEC, 72 h
# Procedure: (§1) Data are analysed using a three-parameter non-linear regression curve or the operational model of receptor agonism. g–h Signalling bias plots were calculated as ∆Log(τ/KA) (g) or ∆∆Log(τ/KA) (h) for each agonist and for each signalling pathway. […] Solid arrows indicate known pathways. Dashed arrows represent possible pathways.
# Both endothelial cell lines and HCMs were seeded at a density of 2500 cells/well in a clear flat bottom 96-well plate (Corning, UK) and incubated at 37 °C in 5% CO2. After 24 h, cells were exposed to test compounds or vehicle, in complete endothelial cell growth media (HUVECs) or myocyte growth media (HCMs). Cells were incubated for a further 72 h at 37 °C in 5% CO2. After 72 h incubation, 5 μl of Cell Counting Kit–8 (CCK-8, Sigma, UK) was added to each well and cells were then incubated for another 2 h at 37 °C in 5% CO2 and in the dark[61]. The absorbance of each well was measured using a Mithras LB940 microplate reader with an excitation of 450 nm. The absorbance is directly proportional to the number of viable cells. Cell proliferation was calculated as a percentage of number of cells treated with vehicle alone.
# (§2) All sample sizes were determined, and data analysed, in accordance with the guidelines described by Curtis M et al.[65]. All experiments were appropriately controlled using ‘system pathway’ agonists. If any of these pathway controls generated inappropriate responses, then the entire data set was removed from analysis. […] Data analysis for cAMP accumulation, Ca^2+i mobilisation, NO accumulation, pERK1/2 activation, and cell proliferation assays were performed in GraphPad Prism 8.4 (GraphPad Software, San Diego). Data were fitted to obtain concentration–response curves using either the three-parameter logistic equation using to obtain values of Emax and pEC50 or the operational model of agonism. Statistical differences were analysed using one-way ANOVA followed by Dunnett’s post-hoc (for comparisons amongst more than two groups) or unpaired Student’s t test with Welch’s correction (for comparison between two groups). To account for the day-to-day variation experienced from the cultured cells, we used the maximal level of cAMP accumulation from cells in response to 100 μM forskolin stimulation was used as a reference, 10 μM ionomycin for Ca^2+i assays, 10 μM phorbol 12-myristate 13-acetate (PMA) for pERK1/2 activation, 10 μM acetylcholine for NO production and 10 μM VEGF for cell proliferation. […] Where appropriate the operational model for receptor agonism[27] was used to obtain efficacy (τ) and equilibrium disassociation constant (KA) values. In both cases, this normalisation removes the variation due to differences in days but retains the variance for control values. The means of individual experiments were combined to generate the curves shown. Having obtained values for τ and KA these were then used to quantify signalling bias as the change in Log(τ/KA)[19],[28]. Error for this composite measure was propagated by applying Eq. 1.1 PooledSEM=(SEMA)^2+(SEMB)^2 Where, SEMA and SEMB are the standard error of measurement A and B.
# [2] = molecular target: T1, AM1 receptor (CLR-RAMP2) in HUVECs (Homo sapiens, UniProt O60895+Q16602); test: antagonism of agonist-induced cAMP accumulation in HUVECs; type: cell-based; settings: HUVEC; 100 nM
# T1 construct: HUVECs specifically express the AM1 receptor alone; host or cells: primary HUVECs
# Procedure: (§3) All primary cell lines were cultured as above. On the day of the experiment media was removed and cells washed with PBS, before being dissociated with Trypsin-EDTA 0.05% (Gibco, UK) and then resuspended in PBS/BSA (0.1%) (Sigma, UK). Cells were immediately plated for use in cAMP assay as per the manufacturer’s instructions, reagents used were provided by the LANCE® cAMP detection assay kit (PerkinElmer, Boston, MA, USA), in 384 well optiplates (PerkinElmer (Boston, MA, USA)) at 2000 cells/well in 5 μl aliquots. […] Cells were incubated with compound for 30 min prior to adding detection buffer[28],[60]. Plates were incubated for a further 60 min (room temperature) and then read on a plate reader (Mithras LB 940 microplate reader (Berthold technologies, Germany)). All responses were normalised to 100μM forskolin (Tocris, UK). Antagonist studies were performed in the same way through co-stimulation of the relevant concentration. Alongside control-treated cell. Experiments with PTX (Sigma, UK) required pretreatment (16 h) prior to assays.
# [3] = molecular target: T2, CGRP receptor (CLR-RAMP1) in human cardiomyocytes (HCMs) (Homo sapiens, UniProt O60894+Q16602); test: antagonism of agonist-induced cAMP accumulation in HCMs; type: cell-based; settings: HCM; 100 nM
# T2 construct: primary human cardiomyocytes (HCMs) since these cells only expressed CLR and RAMP1; host or cells: primary human cardiomyocytes (HCMs)
# Procedure: as §3
# [4] = test system: AM receptors; settings: at concentrations of up to 10 micromolar; ref Doods et al., Br. J. Pharmacol., 129, (2000), pp. 420-423; cited from earlier work
# [5] = molecular target: T1, AM1 receptor (CLR-RAMP2) in HUVECs; test: total nitric oxide production in HUVECs; type: cell-based; settings: HUVEC
# Procedure: as §1
# Endothelial cells and HCMs were cultured as above. 24 h prior to assay cells were plated on Costar 96-well black clear bottom plates at 40,000 cells/well. The assay was performed according to the manufacturer’s protocol. Briefly, cells pre-incubated with NO dye and assay buffer 1 (Fluorometric Nitric Oxide Assay Kit, Abcam, UK) for 30 min at 37 °C in 5% CO2. Any inhibitors requiring 30 min pre-treatment (YM/L-NAME/DMSO control) were added at this point. Ligand stimulation occurred immediately after this for 15 min at 37 °C in 5% CO2. Stain and ligand solution was removed, assay buffer II was added, and wells were read immediately. The absorbance was measured using a Tecan T200 (Thermo Fisher Scientific UK) reader with an excitation/emission of 540/590 nm. Endothelial cell responses were normalised to 10 μM acetylcholine. HCM responses were normalised to 10 μM isoproterenol[63],[64].
# as §2
# [6] = molecular target: T1, AM1 receptor (CLR-RAMP2) in HUVECs; test: mobilisation of Ca2+i in HUVECs; type: cell-based; settings: HUVEC; Gαq/11/14 inhibitor co-treatment, 100 nM
# Procedure: as §1
# All cell lines were plated at 20,000 cells/well on 96-well black clear-bottom plates (Costar, UK) 24 h before the experiment. […] Cells were then washed twice with calcium-free HBSS, then were left in 100 μl calcium-free HBSS for the duration of the assay. […] Data was normalised to the response seen with 10 μM Ionomycin.
# All sample sizes were determined, and data analysed, in accordance with the guidelines described by Curtis M et al.[65]. All experiments were appropriately controlled using ‘system pathway’ agonists. If any of these pathway controls generated inappropriate responses, then the entire data set was removed from analysis. […] Statistical differences were analysed using one-way ANOVA followed by Dunnett’s post-hoc (for comparisons amongst more than two groups) or unpaired Student’s t test with Welch’s correction (for comparison between two groups). […] Having obtained values for τ and KA these were then used to quantify signalling bias as the change in Log(τ/KA)[19],[28]. […]
# [7] = molecular target: T1, AM1 receptor (CLR-RAMP2) in HUVECs; test: cAMP accumulation in HUVECs; type: cell-based; settings: HUVEC; calcitonin receptor agonists
# Procedure: as §1
# All primary cell lines were cultured as above. On the day of the experiment media was removed and cells washed with PBS, before being dissociated with Trypsin-EDTA 0.05% (Gibco, UK) and then resuspended in PBS/BSA (0.1%) (Sigma, UK). […] Plates were incubated for a further 60 min (room temperature) and then read on a plate reader (Mithras LB 940 microplate reader (Berthold technologies, Germany)). […]
# All sample sizes were determined, and data analysed, in accordance with the guidelines described by Curtis M et al.[65]. […] Statistical differences were analysed using one-way ANOVA followed by Dunnett’s post-hoc (for comparisons amongst more than two groups) or unpaired Student’s t test with Welch’s correction (for comparison between two groups). […] Having obtained values for τ and KA these were then used to quantify signalling bias as the change in Log(τ/KA)[19],[28]. […]
# T1 sequence (Q16602 23-461): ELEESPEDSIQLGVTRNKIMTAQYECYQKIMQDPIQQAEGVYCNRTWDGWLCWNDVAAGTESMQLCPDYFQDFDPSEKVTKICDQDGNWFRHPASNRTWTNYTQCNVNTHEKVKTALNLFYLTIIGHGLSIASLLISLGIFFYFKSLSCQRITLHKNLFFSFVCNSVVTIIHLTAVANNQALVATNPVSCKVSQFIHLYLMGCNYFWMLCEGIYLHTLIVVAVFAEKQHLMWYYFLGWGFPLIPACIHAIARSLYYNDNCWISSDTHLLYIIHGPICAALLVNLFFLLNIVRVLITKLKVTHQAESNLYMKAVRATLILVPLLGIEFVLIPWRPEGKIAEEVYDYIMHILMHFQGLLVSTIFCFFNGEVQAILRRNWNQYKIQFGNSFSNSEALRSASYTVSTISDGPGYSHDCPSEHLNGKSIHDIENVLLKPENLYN
# T1 sequence (O60895 43-175): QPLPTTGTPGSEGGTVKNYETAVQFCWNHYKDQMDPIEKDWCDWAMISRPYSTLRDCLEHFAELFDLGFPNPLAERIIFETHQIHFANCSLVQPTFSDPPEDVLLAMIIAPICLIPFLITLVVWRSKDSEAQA
# T2 sequence (Q16602 23-461): as the sequence (Q16602 23-461) above
# T2 sequence (O60894 27-148): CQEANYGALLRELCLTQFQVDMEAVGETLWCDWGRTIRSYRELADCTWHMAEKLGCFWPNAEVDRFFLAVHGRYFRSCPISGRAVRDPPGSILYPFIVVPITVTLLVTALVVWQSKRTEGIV
compound,measurement,setting,value
C=C[C@@]1(C)CC(=O)[C@]2(O)[C@@]3(C)[C@@H](O)CCC(C)(C)[C@@H]3[C@H](O)[C@H](OC(C)=O)[C@@]2(C)O1 [forskolin],effect of forskolin on cell proliferation,[1],concentration-dependent inhibition of cell proliferation
NCCCC[C@H](NC(=O)[C@@H](Cc1cc(Br)c(O)c(Br)c1)NC(=O)N1CCC(N2Cc3ccccc3NC2=O)CC1)C(=O)N1CCN(c2ccncc2)CC1 [olcegepant],effect on agonist-induced cAMP accumulation,[2],had little effect
same,effect on cAMP accumulation for all three agonists,[3],inhibit cAMP accumulation for all three agonists
same,action on AM receptors,[4],no actions on AM receptors
YM-254890,effect of YM-254890 on NO release,[5],abolished all NO release
same,effect of YM-254890 on Ca2+i responses,[6],all responses could be abolished
"amylin: calcitonin receptor agonist (KCNTATCATQRLANFLVHSSNNFGAILSSTNVGSNTY; Islet amyloid polypeptide; UniProt P10997 34-70, looked up)",functional response,[7],unable to detect the presence of its transcript (Fig. 1a) or obtain a functional response
calcitonin: calcitonin receptor agonist,functional response,[7],unable to detect the presence of its transcript (Fig. 1a) or obtain a functional response

# — PMC8222276 (Communications Biology, 2021)
